Here are results for 3 molecules from patent publication US7432283B2, “Heterocyclic GABAA subtype selective receptor modulators” (Roche Palo Alto LLC, priority 2004, dated 2008).

One series concerns the target T1, GABAA α2β3γ2 (Homo sapiens, UniProt P18507+P28472+P47869).
T1 construct: expressed in transfected cells; host or cells: HEK293
The experiment in a line: 35S-TBPS binding assay, GABAA α2β3γ2. The note with it: 35S-TBPS (5 nM) competition, GABA 1 μM, HEK293 cell membranes, 2 hours at room temperature; for IC50: read-out: pIC50 α2β3γ2 (converted). As for the experimental part:
(§1) The binding assay is based on the assay reported by K. Gee et al., Eur. J. Pharmacol. 1987 136:419-423.
(§2) Homogenate preparation: Membrane preparations of HEK293 cells containing either GABAA α1β2γ2 or GABAA α2β3γ2 constructs were performed according to a modified procedure previously described by Gee et al. (supra). Whole HEK 293 cells in D-PBS (calcium/magnesium free) buffer adjusted to pH 7.4 were centrifuged at 7,280×g for 20 m. After discarding the supernatant, the pellet was resuspended in the buffer and centrifuged at 1,820×g for 10 m. Afterwards, the supernatant was discarded and the pellet resuspended in ice-cold preparation buffer (50 mM Tris HCl pH 7.4, 4° C. and 150 mM KCl), homogenized for 30 sec using a Brinkmann Polytron PT3000 (setting 6) and centrifuged at 48,000×g for 30 m at 4° C. The centrifugation and homogenization procedure was repeated two more times for a total of 3 times before resuspending the membranes at a final protein concentration of 0.5 mg/mL. Aliquots (30 mL) of the final membrane preparation were then centrifuged at 48,000×g for 30 m, and the resulting pellets were stored at −80° C. until required.
(§3) 35S-TBPS binding assay. Membrane pellets containing either GABAA α1β2γ2 or GABAA α2β3γ2 constructs were thawed on ice, resuspended in 10 mL of 50 mM Tris HCl pH 7.4, 4° C. and 150 mM KCl and centrifuged at 48,000×g, 30 m at 4° C. After discarding the supernatant, the pellet was resuspended in 30 mL incubation buffer (50 mM Tris HCl pH 7.4, 25° C. and 150 mM KCl) at approximately 0.5 mg/mL protein concentration. In ^35S-TBPS competition studies, HEK293 membranes were incubated with ^35S-TBPS (5 nM final) and GABA (1 μM) in the absence or presence of competitor at concentrations ranging from 0.01 nM to 10 μM in 125 μL incubation buffer for 2 hours at room temperature (˜22° C.). Non-specific binding was assayed with picrotoxin (100 μM final concentration). […] Measurement of bound radioactivity was performed using a Packard Microplate 96 well topcount scintillation counter. […]

A further series deals with T2, GABAA α1β2γ2 (Homo sapiens, UniProt P14867+P18507+P47870).
T2 construct: expressed in transfected cells; host or cells: HEK293
The experiment in a line: 35S-TBPS binding assay, GABAA α1β2γ2. The note with it: 35S-TBPS (5 nM) competition, GABA 1 μM, HEK293 cell membranes, 2 hours at room temperature; for IC50: read-out: pIC50 α1β2γ2 (converted). Here is the method: as §1, §2, §3

A word on the melting point: it is the temperature of the solid-liquid transition.

T1 sequence (P47869 29-451): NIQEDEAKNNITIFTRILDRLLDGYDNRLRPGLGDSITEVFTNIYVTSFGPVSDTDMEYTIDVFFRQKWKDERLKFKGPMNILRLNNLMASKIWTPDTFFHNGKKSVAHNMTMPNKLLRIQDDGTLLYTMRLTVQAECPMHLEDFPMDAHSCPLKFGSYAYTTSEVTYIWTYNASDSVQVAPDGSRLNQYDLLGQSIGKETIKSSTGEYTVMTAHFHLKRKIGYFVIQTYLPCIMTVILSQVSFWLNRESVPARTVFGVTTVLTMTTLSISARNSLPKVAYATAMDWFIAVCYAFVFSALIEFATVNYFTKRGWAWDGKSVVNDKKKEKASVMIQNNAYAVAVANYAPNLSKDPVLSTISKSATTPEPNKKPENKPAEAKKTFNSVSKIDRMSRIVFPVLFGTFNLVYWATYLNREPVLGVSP
T1 sequence (P28472 26-473): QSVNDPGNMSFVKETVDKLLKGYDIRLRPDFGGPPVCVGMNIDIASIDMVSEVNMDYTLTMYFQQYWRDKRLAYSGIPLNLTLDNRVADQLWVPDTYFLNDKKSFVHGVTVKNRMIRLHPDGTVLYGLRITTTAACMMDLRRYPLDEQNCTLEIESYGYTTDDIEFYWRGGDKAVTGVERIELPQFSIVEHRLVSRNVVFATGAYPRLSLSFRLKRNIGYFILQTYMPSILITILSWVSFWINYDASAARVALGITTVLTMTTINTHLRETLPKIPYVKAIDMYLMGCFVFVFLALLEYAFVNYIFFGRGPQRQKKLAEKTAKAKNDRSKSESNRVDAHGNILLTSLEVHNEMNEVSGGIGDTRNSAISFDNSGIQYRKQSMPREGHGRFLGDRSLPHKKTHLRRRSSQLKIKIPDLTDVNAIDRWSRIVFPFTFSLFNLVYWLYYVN
T1 sequence (P18507 40-475): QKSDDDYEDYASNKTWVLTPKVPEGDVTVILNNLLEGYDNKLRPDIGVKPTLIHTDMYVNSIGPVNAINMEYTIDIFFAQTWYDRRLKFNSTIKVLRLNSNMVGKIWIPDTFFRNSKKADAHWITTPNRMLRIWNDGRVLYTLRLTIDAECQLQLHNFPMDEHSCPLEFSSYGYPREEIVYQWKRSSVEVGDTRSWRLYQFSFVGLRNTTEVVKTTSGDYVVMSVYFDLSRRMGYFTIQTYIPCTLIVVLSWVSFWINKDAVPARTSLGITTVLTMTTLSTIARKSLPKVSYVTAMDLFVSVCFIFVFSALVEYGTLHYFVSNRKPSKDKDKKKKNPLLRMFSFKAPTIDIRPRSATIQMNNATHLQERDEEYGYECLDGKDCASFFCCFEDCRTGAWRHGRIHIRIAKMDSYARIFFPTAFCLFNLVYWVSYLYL
T2 sequence (P14867 28-456): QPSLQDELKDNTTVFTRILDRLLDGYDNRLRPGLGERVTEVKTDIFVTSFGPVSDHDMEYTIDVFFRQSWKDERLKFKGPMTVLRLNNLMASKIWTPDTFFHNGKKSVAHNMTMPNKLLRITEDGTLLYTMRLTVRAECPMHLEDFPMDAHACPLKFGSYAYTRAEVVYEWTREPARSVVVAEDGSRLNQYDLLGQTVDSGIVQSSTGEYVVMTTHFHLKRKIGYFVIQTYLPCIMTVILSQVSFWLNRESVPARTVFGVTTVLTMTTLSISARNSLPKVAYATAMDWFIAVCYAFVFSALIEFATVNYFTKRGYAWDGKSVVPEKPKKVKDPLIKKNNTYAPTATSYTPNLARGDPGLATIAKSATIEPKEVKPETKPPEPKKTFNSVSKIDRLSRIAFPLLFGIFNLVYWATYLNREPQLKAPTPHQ
T2 sequence (P47870 25-512 limits assumed): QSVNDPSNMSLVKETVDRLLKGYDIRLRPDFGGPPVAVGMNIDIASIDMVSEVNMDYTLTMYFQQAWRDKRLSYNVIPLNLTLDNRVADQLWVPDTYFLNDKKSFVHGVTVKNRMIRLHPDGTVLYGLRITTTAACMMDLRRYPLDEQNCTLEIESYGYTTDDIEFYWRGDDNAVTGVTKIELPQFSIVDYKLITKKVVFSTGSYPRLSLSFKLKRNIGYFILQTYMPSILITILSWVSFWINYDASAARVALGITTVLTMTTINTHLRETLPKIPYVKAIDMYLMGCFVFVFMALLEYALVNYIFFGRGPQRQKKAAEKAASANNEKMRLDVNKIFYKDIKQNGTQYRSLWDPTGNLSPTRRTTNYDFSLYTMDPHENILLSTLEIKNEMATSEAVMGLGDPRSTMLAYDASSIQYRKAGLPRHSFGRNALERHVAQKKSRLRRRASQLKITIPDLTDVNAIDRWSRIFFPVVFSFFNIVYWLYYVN
T2 sequence (P18507 40-475): as the sequence (P18507 40-475) above

Consider `Cn1nc2c(c1Cl)CCCN2c1ccc(Cl)cc1Cl` [Compound 1-9, 3-chloro-7-(2,4-dichloro-phenyl)-2-methyl-4,5,6,7-tetrahydro-2H-pyrazolo [3,4-b]pyridine], for which the melting point lay in the range of 94.5 to 95.5 °C. For the same molecule, at GABAA α2β3γ2, the IC50 was 0.0964 µM. Further, the IC50 at GABAA α1β2γ2 was 1.2 µM.
Consider `Cc1c2c(nn1C)N(c1ccc(Cl)cc1Cl)CCC2` [Compound 2-17, 7-(2,4-Dichloro-phenyl)-2,3-dimethyl-4,5,6,7-tetrahydro-2H-pyrazolo[3,4-b]pyridine], for which the melting point is 66.6 to 76.6 °C. In addition, the IC50 on GABAA α2β3γ2 is 0.105 µM. Besides, the IC50 at GABAA α1β2γ2 was 2.84 µM.
Take “7-(2,4-Dichloro-phenyl)-3-ethynyl-2-methyl-4,5,6,7-tetrahydro-2H-|pyrazolo[3,4-b]pyridine [Compound 3-10]”: the “pIC50 α2β3γ2” value on GABAA α2β3γ2 was 6.883. Besides, the “pIC50 α1β2γ2” value at GABAA α1β2γ2 is recorded as 5.423.
